Assay results taken from patent US4492693A, “Benzothienylglycyl cephalosporin derivatives” (priority 1983, dated 1985).
≈ marks a conversion by molar mass, not a printed value. Like-named read-outs stand apart in the source and are kept apart here.

Experiments:
[1] = system: Staph. epi; assay: Agar Dilution MIC (Table I); format: cell-based; conditions: read-out: Agar Dilution MIC
[2] = system: H. influ.; assay: Agar Dilution MIC (Table I); format: cell-based; conditions: read-out: Agar Dilution MIC
[3] = system: Strep. PN; assay: Agar Dilution MIC (Table I); format: cell-based; conditions: strain PARK
[4] = system: Klebsiella; assay: Agar Dilution MIC (Table I); format: cell-based; conditions: for MIC: Klebsiella, read-out: Agar Dilution MIC
[5] = system: Strep. D; assay: Agar Dilution MIC (Table I); format: cell-based
Procedure, shortened: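 In vitro susceptibility determined by agar dilution under standard conditions, giving MIC expressed as μg/ml.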

[6] = system: E. coli; assay: Agar Dilution MIC (Table I); format: cell-based; conditions: Escherichia coli
[7] = system: Bacteroides thetaiotaomicron; assay: Susceptibility of Anaerobic Bacteroides Isolates by the Agar-Dilution Method (Table III); format: cell-based; conditions: 24 h
Text: (§1) A typical and preferred compound provided by this invention is 7-(3-benzothienyl)glycylamido-3-methyl-3-cephem-4-carboxylic acid, the compound illustrated in Example 9. The antibacterial activity of this compound has been determined in standard in vitro agar dilution assays against a variety of gram positive and gram negative microorganism. The following Tables present typical minimum inhibitory concentrations (MIC's) in μg/ml for several compounds of the invention when evaluated against the indicated microorganisms. MIC's for several known compounds are also presented for comparison.
(§2) Susceptibility of Anaerobic Bacteroides Isolates by the
(§3) Agar-Dilution Method MIC (μg/ml) readings 24 hrs. after incubation

[8] = system: Bacteroides fragilis; assay: as above; format: cell-based; conditions: 24 h
Text: as §1, §2, §3

[9] = system: Bacteroides corrodens; assay: as above; format: cell-based; conditions: Eikenella corrodens; strain 1874; readings 24 hrs. after incubation
Text: as §1, §2, §3

[10] = system: Staph. aureus; assay: Agar Dilution MIC (Table I); format: cell-based; conditions: Staphylococcus aureus
[11] = system: Staph. aureus; assay: Expanded Spectrum MIC (Table II); format: cell-based; conditions: Staphylococcus aureus
Text: as §1
(§4) Expanded Spectrum MIC (μg/ml)

[12] = system: H. influenzae; assay: Expanded Spectrum MIC (Table II); format: cell-based; conditions: Haemophilus influenzae
Text: as §1, §4

[13] = system: Staph. epi; assay: Expanded Spectrum MIC (Table II); format: cell-based
Text: as §1, §4

[14] = system: Strep. A; assay: Agar Dilution MIC (Table I); format: cell-based; conditions: strain C203; read-out: Agar Dilution MIC
[15] = pKa (66% aqueous DMF); format: physicochemical
[16] = system: β-lactamase, organism 1313G; assay: Stability to β-lactamase (Table V); format: biochemical; conditions: lower numbers mean greater stability
[17] = system: β-lactamase, organism TEM; format: biochemical; conditions: lower numbers mean greater stability
[18] = system: β-lactamase, organism 1082E; assay: Stability to β-lactamase (Table V); format: biochemical; conditions: lower numbers mean greater stability
[19] = system: Bacteroides fragilis; assay: Expanded anaerobic Spectrum MIC (Table IV); format: cell-based
[20] = system: Haemophilus influenzae; assay: Expanded H. influenzae Spectrum MIC (Table IV); format: cell-based
[21] = system: β-lactamase, organism 265A; assay: Stability to β-lactamase (Table V); format: biochemical; conditions: lower numbers mean greater stability
[22] = system: β-lactamase, organism PS185; assay: Stability to β-lactamase (Table V); format: biochemical; conditions: lower numbers mean greater stability
[23] = read-out: MIC mean, mean over strains

## CC1=C(C(=O)O)N2C(=O)C(NC(=O)[C@H](N)c3csc4c(F)cccc34)C2SC1 (stereo partly drawn) [Ex. 20, D-7-(7-Fluoro-3-benzothienyl)glycylamido-3-methyl-3-cephem-4-carboxylic acid]
[1]; strain 222
  MIC: 2 µg/mL (≈ 4.75 µM)
[1]; strain EPI1
  MIC: 4 µg/mL (≈ 9.49 µM)
[2]; strain 76
  MIC: 0.5 µg/mL (≈ 1.19 µM)
[2]; strain C.L.
  MIC: 4 µg/mL (≈ 9.49 µM)
[3]
  MIC: 0.5 µg/mL (≈ 1.19 µM)
[4]
  MIC: 128 µg/mL (≈ 304 µM)
[4]; strain X26
  MIC: 4 µg/mL (≈ 9.49 µM)
[4]; strain X68
  Agar Dilution MIC: 128 µg/mL
[5]; read-out: Agar Dilution MIC
  MIC: 128 µg/mL (≈ 304 µM)
[5]; strain 2041
  Agar Dilution MIC: 128 µg/mL
[6]; strain EC14
  MIC: 128 µg/mL (≈ 304 µM)
[6]; strain N10
  MIC: 128 µg/mL (≈ 304 µM)
[6]; strain TEM
  MIC: 128 µg/mL (≈ 304 µM)
[7]; strain 1438, readings 24 hrs. after incubation
  MIC: 16 µg/mL (≈ 38 µM)
[7]; strain 1900A, readings 24 hrs. after incubation
  MIC: 32 µg/mL (≈ 75.9 µM)
[8]; strain 9, readings 24 hrs. after incubation
  MIC: 16 µg/mL (≈ 38 µM)
[8]; strain 103, readings 24 hrs. after incubation
  MIC: 64 µg/mL (≈ 152 µM)
[8]; strain 104, readings 24 hrs. after incubation
  MIC: 8 µg/mL (≈ 19 µM)
[8]; strain 106, readings 24 hrs. after incubation
  MIC: 16 µg/mL (≈ 38 µM)
[8]; strain 107, readings 24 hrs. after incubation
  MIC: 32 µg/mL (≈ 75.9 µM)
[8]; strain 108, readings 24 hrs. after incubation
  MIC: 8 µg/mL (≈ 19 µM)
[8]; strain 110, readings 24 hrs. after incubation
  MIC: 32 µg/mL (≈ 75.9 µM)
[8]; strain 111, readings 24 hrs. after incubation
  MIC: 128 µg/mL (≈ 304 µM)
[8]; strain 1877, readings 24 hrs. after incubation
  MIC: 16 µg/mL (≈ 38 µM)
[9]
  MIC: 64 µg/mL (≈ 152 µM)
[10]; read-out: Agar Dilution MIC, strain S13E
  MIC: 8 µg/mL (≈ 19 µM)
[10]; strain V41, read-out: Agar Dilution MIC
  MIC: 16 µg/mL (≈ 38 µM)
[10]; strain X1.1, read-out: Agar Dilution MIC
  MIC: 0.5 µg/mL (≈ 1.19 µM)
[10]; strain X400, read-out: Agar Dilution MIC
  MIC: 128 µg/mL (≈ 304 µM)
[11]; strain S224
  MIC: 2 µg/mL (≈ 4.75 µM)
[11]; strain S225
  MIC: 2 µg/mL (≈ 4.75 µM)
[11]; strain S226
  MIC: 2 µg/mL (≈ 4.75 µM)
[11]; strain S227
  MIC: 2 µg/mL (≈ 4.75 µM)
[11]; strain S228
  MIC: 2 µg/mL (≈ 4.75 µM)
[11]; strain S229
  MIC: 2 µg/mL (≈ 4.75 µM)
[11]; strain S230
  MIC: 2 µg/mL (≈ 4.75 µM)
[11]; strain S231
  MIC: 1 µg/mL (≈ 2.37 µM)
[11]; strain S234
  MIC: 2 µg/mL (≈ 4.75 µM)
[11]; strain S237
  MIC: 2 µg/mL (≈ 4.75 µM)
[11]; strain S238
  MIC: 4 µg/mL (≈ 9.49 µM)
[11]; strain S239
  MIC: 2 µg/mL (≈ 4.75 µM)
[12]; strain 76
  MIC: 1 µg/mL (≈ 2.37 µM)
[12]; strain 105
  MIC: 2 µg/mL (≈ 4.75 µM)
[12]; strain 158
  MIC: 2 µg/mL (≈ 4.75 µM)
[12]; strain 164
  MIC: 2 µg/mL (≈ 4.75 µM)
[12]; strain 169
  MIC: 4 µg/mL (≈ 9.49 µM)
[12]; strain 171
  MIC: 2 µg/mL (≈ 4.75 µM)
[12]; strain 312
  MIC: 4 µg/mL (≈ 9.49 µM)
[12]; strain 1683
  MIC: 1 µg/mL (≈ 2.37 µM)
[12]; strain 1930
  MIC: 4 µg/mL (≈ 9.49 µM)
[12]; strain 4842
  MIC: 2 µg/mL (≈ 4.75 µM)
[12]; strain C.L.
  MIC: 16 µg/mL (≈ 38 µM)
[12]; strain HESS
  MIC: 8 µg/mL (≈ 19 µM)
[12]; strain M366
  MIC: 64 µg/mL (≈ 152 µM)
[12]; strain M370
  MIC: 2 µg/mL (≈ 4.75 µM)
[12]; strain M371
  MIC: 2 µg/mL (≈ 4.75 µM)
[12]; strain R465
  MIC: 64 µg/mL (≈ 152 µM)
[12]; strain STEL
  MIC: 64 µg/mL (≈ 152 µM)
[13]; strain 219
  MIC: 2 µg/mL (≈ 4.75 µM)
[13]; strain 269
  MIC: 4 µg/mL (≈ 9.49 µM)
[13]; strain 270
  MIC: 8 µg/mL (≈ 19 µM)
[13]; strain 285
  MIC: 4 µg/mL (≈ 9.49 µM)
[13]; strain 286
  MIC: 1 µg/mL (≈ 2.37 µM)
[13]; strain EPI1
  MIC: 16 µg/mL (≈ 38 µM)
[14]
  MIC: 0.125 µg/mL (≈ 0.297 µM)

## C=CCOC(=O)NC(C(=O)O)c1csc2ccccc12 (centres unmarked) [N-Allyloxycarbonyl-(3-benzothienyl)glycine]
[15]
  pKa: 5.7

## N[C@@H](C(=O)N[C@@H]1C(=O)N2C(C(=O)O)=C(Cl)CS[C@H]12)c1ccccc1 [cefaclor]
[16]
  Stability to β-lactamase: 4605
[17]
  Stability to β-lactamase: 23
[18]
  Stability to β-lactamase: 65
[19]; read-out: MIC Geometric mean, geometric mean over strains
  MIC: 32 µg/mL (≈ 87 µM)
[19]; [23]
  MIC: 39 µg/mL (≈ 106 µM)
[19]; strain 180-821
  MIC: 64 µg/mL (≈ 174 µM)
[19]; strain 10668
  MIC: 64 µg/mL (≈ 174 µM)
[19]; strain 10683
  MIC: 16 µg/mL (≈ 43.5 µM)
[19]; strain 10695
  MIC: 32 µg/mL (≈ 87 µM)
[19]; strain 10732
  MIC: 16 µg/mL (≈ 43.5 µM)
[19]; strain 10750
  MIC: > 64 µg/mL
[19]; strain 10774
  MIC: > 64 µg/mL
[19]; strain 10817
  MIC: 64 µg/mL (≈ 174 µM)
[19]; strain 10837
  MIC: > 64 µg/mL
[19]; strain 107266
  MIC: 16 µg/mL (≈ 43.5 µM)
[19]; strain 107268
  MIC: 16 µg/mL (≈ 43.5 µM)
[19]; strain 108133
  MIC: 32 µg/mL (≈ 87 µM)
[20]; read-out: MIC Geometric Mean, geometric mean over strains
  MIC: 2 µg/mL (≈ 5.44 µM)
[20]; [23]
  MIC: 3 µg/mL (≈ 8.16 µM)
[20]; strain 101
  MIC: 2 µg/mL (≈ 5.44 µM)
[20]; strain 102
  MIC: 16 µg/mL (≈ 43.5 µM)
[20]; strain 103
  MIC: 2 µg/mL (≈ 5.44 µM)
[20]; strain 104
  MIC: 1 µg/mL (≈ 2.72 µM)
[20]; strain 105
  MIC: 1 µg/mL (≈ 2.72 µM)
[20]; strain 106
  MIC: 2 µg/mL (≈ 5.44 µM)
[20]; strain 107
  MIC: 2 µg/mL (≈ 5.44 µM)
[20]; strain 108
  MIC: 1 µg/mL (≈ 2.72 µM)
[20]; strain 109
  MIC: 2 µg/mL (≈ 5.44 µM)
[20]; strain 110
  MIC: 1 µg/mL (≈ 2.72 µM)
[20]; strain 111
  MIC: 1 µg/mL (≈ 2.72 µM)
[20]; strain 112
  MIC: 2 µg/mL (≈ 5.44 µM)
[20]; strain 113
  MIC: 2 µg/mL (≈ 5.44 µM)
[20]; strain 114
  MIC: 1 µg/mL (≈ 2.72 µM)
[21]
  Stability to β-lactamase: 138
[22]
  Stability to β-lactamase: 71
